Assay results: patent publication US20190201409A1, “COMBINATION THERAPY” (MEI Pharma, Inc., priority 2016, published 2019)

Legend:
Type in all cases: cell-based
[1] = tested on: panel of 8 DLBCL cell lines; assay: ATPLite growth inhibition assay across the cell line panel; details: single agent, FIG. 9
Experimental: (§1) The activity of compound I was examined in combination with PCI-32765 (ibrutinib), ABT-199 (venetoclax) and EPZ-6438 (Tazemetostat) across a panel of 8 DLBCL cell lines indicated below (7 GCB subtype cell lines and 1 ABC subtype cell line).
(§2) The effect of test compounds and combinations on growth inhibition as a measure of cell viability was determined in an ATPLite assay. The endpoint readout of the assay was based upon quantitation of ATP as an indicator of viable cells.
Cells were thawed from a liquid nitrogen preserved state. Once cells were expanded and divided at their expected doubling times, screening begins. Cells were seeded in growth media in black 384-well tissue culture treated plates at 500 cells per well (except where noted in Analyzer). […] These Tzero (T0) plates were read using ultra-sensitive luminescence on Envision Plate Readers. […] All data points were collected via automated processes; quality controlled; and analyzed using Horizon Discovery proprietary software. […]
Growth Inhibition (GI) was used as a measure of cell viability. The cell viability of vehicle was measured at the time of dosing (T0) and after seventy two hours (T72). A GI reading of 0% represented no growth inhibition—cells treated with compound and T72 or T120 vehicle signals were matched. […] GI was calculated by applying the following test and equation: […]

DOHH-2 cells = assay: ATPLite growth inhibition assay, single agent and combination (Loewe synergy); details: single agent
Experimental: as §1, §2
(§3) Cells were thawed from a liquid nitrogen preserved state. Once cells were expanded and divided at their expected doubling times, screening begins. Cells were seeded in growth media in black 384-well tissue culture treated plates at 500 cells per well (except where noted in Analyzer). Cells were equilibrated in assay plates via centrifugation and placed in incubators attached to the Dosing Modules at 37° C. for 24 hours before treatment. […] These Tzero (T0) plates were read using ultra-sensitive luminescence on Envision Plate Readers. Treated assay plates were incubated with compound for 72 hours. All data points were collected via automated processes; quality controlled; and analyzed using Horizon Discovery proprietary software. Assay plates were accepted if they pass the following quality control standards: relative luciferase values were consistent throughout the entire experiment, Z-factor scores were greater than 0.6, untreated/vehicle controls behaved consistently on the plate.
(§4) Growth Inhibition (GI) was used as a measure of cell viability. The cell viability of vehicle was measured at the time of dosing (T0) and after seventy two hours (T72). A GI reading of 0% represented no growth inhibition—cells treated with compound and T72 or T120 vehicle signals were matched. A GI 100% represented complete growth inhibition—cells treated by compound and To vehicle signals were matched. […] A GI 200% represents complete death of all cells in the culture well. Compounds reaching an activity plateau of GI 200% were considered cytotoxic. GI was calculated by applying the following test and equation: […]
(§5) where T is the signal measure for a test article, V is the vehicle-treated control measure, and V0 is the vehicle control measure at time zero. This formula is derived from the Growth Inhibition calculation used in the National Cancer Institute's[sic] NCl[sic]−60 high throughput screen.
(§6) Loewe Additivity model was used for measuring the effects of drug combinations. The Loewe additivity model is dose-based and applies only to the activity levels achieved by the single agents. Loewe Volume was used to assess the overall magnitude of the combination interaction in excess of the Loewe additivity model. Loewe Volume is particularly useful when distinguishing synergistic increases in a phenotypic activity (positive Loewe Volume) versus synergistic antagonisms (negative Loewe Volume). When antagonisms are observed, the Loewe Volume should be assessed to examine if there is any correlation between antagonism and a particular drug target-activity or cellular genotype. This model defines additivity as a non-synergistic combination interaction where the combination dose matrix surface should be indistinguishable from either drug crossed with itself. The calculation for additivity is:
(§7) To measure combination effects in excess of Loewe additivity, a scalar measure to characterize the strength of synergistic interaction was devised and termed the Synergy Score. The Synergy Score was calculated as:
(§8) Synergy Score=log fX log fYΣ max(0,Idata)(Idata−ILoewe)
(§9) The fractional inhibition for each component agent and combination point in the matrix was calculated relative to the median of all vehicle-treated control wells. The Synergy Score equation integrates the experimentally-observed activity volume at each point in the matrix in excess of a model surface numerically derived from the activity of the component agents using the Loewe model for additivity. […]

NU-DHL-1 cells = assay: as above; details: single agent
Experimental: as §1, §2, §3, §4, §5, §6, §7, §8, §9

SU-DHL-10 cells = assay: as above; details: single agent; printed SU-DIAL-10
Experimental: as §1, §2, §3, §4, §5, §6, §7, §8, §9

OCI-Ly19 cells = assay: as above; details: single agent
Experimental: as §1, §2, §3, §4, §5, §6, §7, §8, §9

OCI-Ly3 cells = assay: as above; details: single agent
Experimental: as §1, §2, §3, §4, §5, §6, §7, §8, §9

Pfeiffer cells = assay: as above; details: single agent
Experimental: as §1, §2, §3, §4, §5, §6, §7, §8, §9

## CN1CCC(c2ccccc2CC(C)(C)Nc2nc(N3CCOCC3)nc(-n3c(C(F)F)nc4ccccc43)n2)CC1 [Compound I, 4-(2-(difluoromethyl)-1H-benzo[d]imidazol-1-yl)-N-(2-methyl-1-(2-(1-methylpiperidin-4-yl)phenyl)propan-2-yl)-6-morpholino-1,3,5-triazin-2-amine]
[1]; all cell lines
  growth inhibition levels: > 50%
[1]; median across cell line panel
  GI50: 1.73 µM
DOHH-2 cells
  kind of growth inhibition effect (FIG. 10): cytotoxic effects
NU-DHL-1 cells
  kind of growth inhibition effect (FIG. 10): sub-cytostatic effects
SU-DHL-10 cells
  kind of growth inhibition effect (FIG. 10): sub-cytostatic effects
OCI-Ly19 cells
  kind of growth inhibition effect (FIG. 10): cytotoxic effects
OCI-Ly3 cells
  kind of growth inhibition effect (FIG. 10): cytotoxic effects
Pfeiffer cells
  kind of growth inhibition effect (FIG. 10): sub-cytostatic effects
